From EP1487791B1, “A NOVEL ANTIFUNGAL MOLECULE 2-(3,4-DIMETHYL-2,5-DIHYDRO-1H-PYRROL-2-YL)- METHYLETHYL PENTANOATE” (priority 2002, dated 2003)

Experiments:
A. fumigatus [1] = assay: Microbroth dilution assay; type: cell-based; parameters: key: +ve if medium appeared clear with out any growth of fungi; -ve if growth was there
Procedure: (§1) Pathogenic strains of fungi were obtained from the Mycology Department of Vallabhbhai Patel Chest Institute, Delhi. All the strains were grown on Sabouraud dextrose agar at 37°C. The conidia form these cultures were harvested and suspended in Sabouraud maltose broth. The number of conidia was counted using haemocytometer and their number in the suspension was adjusted to as per need of the experiment.
(§2) The antifungal susceptibility of the fungi to various fractions or the purified component was assayed by the microbroth, dilution method (Forthergill A.W. and McGough A.W., 1995, Clin. Microbiol. Procedure Handbook. In Vitro susceptibility Testing of Yeast, 5.15.1-5.15.15). The fungal spores were harvested from 96-h cultures and their number adjusted to 1x10^6 per ml. The Sabouraud Dextrose medium was dissolved in glass double distilled water and autoclaved at 10 psi for 15 min. 90-µl medium was added into the wells of cell culture plates. The different concentrations of the extract, fractions or the purified compound were prepared in duplicate wells and then the wells were inoculated with 10 µl of spore suspension. The plates were incubated at 37°C and examined macroscopically after 48 h for the growth of fungal mycelia. The activity was represented as -ve if growth was there and +ve if medium appeared clear with out any growth of fungi.
(§3) The antifungal susceptibility of the fungi to the purified compound was assayed by the microbroth dilution method. The different concentrations of the purified compound ranging from 21.87 to 350 µg/ml were prepared in duplicate wells by twofold dilution method. The test was done as described above. […] Table 1: Activity of the compound against Aspergillus sp. after 48 hrs.

A. niger = assay: Microbroth dilution assay; type: cell-based; parameters: key: +ve if medium appeared clear with out any growth of fungi; -ve if growth was there
Procedure: as §1, §2, §3

A.fumigatus = assay: Disc diffusion assay; type: cell-based
Procedure: as §1
(§4) The disc diffusion test was performed as per described in the section of details of invention. Amphotericin B 1.25 µg/disc was used in assay as positive control standard drug. Additional discs impregnated with equivalent amount of solvent were also used in the assay as negative controls (Fig: 5). […] Table 2: Antifungal activity of compound by disc diffusion method
The potency of the compound was determined with the help of standard curve constructed using amphotericin B as standard drug against A.fumigatus. Standard curve was prepared according to method given in the Indian Pharmacopoeia. The corrected values of diameter of zone of inhibition along with lowest and highest values were determined. These values were plotted on semilog paper to prepare standard curve. The value of diameter of zone of inhibition obtained for compound was put into the standard curve and corresponding dose producing the effect equivalent to amphotericin B was determined to find out the potency of the compound (Fig: 6).

A. flavus = assay: Disc diffusion assay; type: cell-based; conditions: Aspergillus flavus, 48 hrs, read-out: Diameter of zone of inhibition
Procedure: as §1, §4

A.niger = assay: Disc diffusion assay; type: cell-based; conditions: 48 hrs
Procedure: as §1, §4

A. fumigatus [2] = assay: In vivo efficacy, survival in mice model of aspergillosis; parameters: species or system Balb/C mice; conditions: oral; probit of percent survival against log dose
Source text: In vivo efficacy of the compound against A. fumigatus infection was studied in the Balb/C mice of 6-8 weak of age of either sex, weighing 15-20 g each. The mice model of aspergillosis described by Dixon et al (1989), was used to study the effects of compound on in vivo infection of A. fumigatus.
The animals were housed in the micro-barrier cages on sterile bedding and fed ad libitum water and food. The mice were divided into 6 groups and each group contained 8-10 animals. The mice were infected experimentally with A. fumigatus. Three days prior to infection with conidia, mice were injected subcutaneously with 3 doses (250.0 mg/kg/day) of cortisone acetate in 400.0 µl of PBS. On the infection day, each mouse received 2x10^7 conidia by nasal instillation of a single droplet of conidial suspension. […]
A. fumigatus (190/96) isolate was grown on Sabouraud dextrose agar plates at 37 °C for 4 days. […] The number of conidia, was counted and adjusted to 1x10^8 conidia/ml. The viability of the conidia was determined by plating the dilutions of suspensions on Sabouraud dextrose agar. […]
The animals were housed in properly labeled cages and kept under close watch for weight loss and the mortality. The survival rate over a period of 10 days was calculated and the fungal burden in survivors determined (Clemons and Stevens, 1994). […]

Question: With `CCCCC(=O)OC(C)CC1NCC(C)=C1C` (stereo not shown) [PC-1, 2-(3,4-dimethyl-2,5-dihydro-1H-pyrrol-2-yl)-1-methylethyl pentanoate] as the compound, how does the “Activity against Aspergillus sp. after 48 hrs” value (from here on “Activity”) (A. fumigatus [1]; 21.87 µg/ml) read?
Answer: -

Question: What about the “Activity” value (A. fumigatus [1]; 43.75 µg/ml) of the same compound?
Answer: -

Question: What about the “Activity” value (A. fumigatus [1]; 87.50 µg/ml) of the same compound?
Answer: +

Question: What about the “Activity” value (A. fumigatus [1]; 175.00 µg/ml) of the same compound?
Answer: +

Question: What about the “Activity” value (A. fumigatus [1]; 350.00 µg/ml) of the same compound?
Answer: +

Question: And the “Activity” value (A. niger; 21.87 µg/ml)?
Answer: -

Question: And the “Activity” value (A. niger; 43.75 µg/ml)?
Answer: -

Question: And the “Activity” value (A. niger; 87.50 µg/ml)?
Answer: +

Question: And the “Activity” value (A. niger; 175.00 µg/ml)?
Answer: +

Question: And the “Activity” value (A. niger; 350.00 µg/ml)?
Answer: +

Question: What about the “amount of amphotericin B producing an equivalent diameter of zone of inhibition” value (A.fumigatus; 10 µg/disc of the compound, standard curve with amphotericin B) of the same compound?
Answer: 2.67 µg

Question: What about the zone of inhibition at 5 µg/disc (A.fumigatus; Aspergillus fumigatus, 5.0 µg/disc, 48 hrs, read-out: Diameter of zone of inhibition) of the same compound?
Answer: 6.25 mm

Question: And the zone of inhibition at 10 µg/disc (A.fumigatus; Aspergillus fumigatus, 10.0 µg/disc, 48 hrs, read-out: Diameter of zone of inhibition)?
Answer: 8.5 mm

Question: What about the zone of inhibition at 20 µg/disc (A.fumigatus; Aspergillus fumigatus, 20.0 µg/disc, 48 hrs, read-out: Diameter of zone of inhibition) of the same compound?
Answer: 9.25 mm

Question: And the “less potent as compared to amphotericin B” value (A.fumigatus; disc diffusion standard curve)?
Answer: 3.74 time

Question: And the zone of inhibition at 5 µg/disc (A. flavus; 5.0 µg/disc)?
Answer: 6.15 mm

Question: And the zone of inhibition at 10 µg/disc (A. flavus; 10.0 µg/disc)?
Answer: 8.1 mm

Question: What about the zone of inhibition at 20 µg/disc (A. flavus; 20.0 µg/disc) of the same compound?
Answer: 9 mm

Question: What about the “Diameter of zone of inhibition” value (A.niger; 5.0 µg/disc) of the same compound?
Answer: 6.40 mm

Question: And the zone of inhibition at 5 µg/disc (A.niger; Aspergillus niger, 5.0 µg/disc, read-out: Diameter of zone of inhibition)?
Answer: 6.4 mm

Question: And the zone of inhibition at 10 µg/disc (A.niger; Aspergillus niger, 10.0 µg/disc, read-out: Diameter of zone of inhibition)?
Answer: 8.6 mm

Question: And the “ED50 (effective dose required to confer protection in 50% of the animals)” value (A. fumigatus [2])?
Answer: 167.0 mg/kg body weight
